Measured values from ChEMBL document CHEMBL3734682, “PPL catalyzed four-component PASE synthesis of 5-monosubstituted barbiturates: Structure and pharmacological properties” (2015).
Converted amounts (≈) assume the structure as drawn. The source made the active and inactive calls. No cut-off for these calls is given here.

Key:
DLA [1] = assay: Induction of apoptosis in Swiss albino mouse DLA cells assessed as nuclear fragmentation at 50 and 100 ug/ml after 12 hrs by AO/EtBr staining based fluorescence microscopic analysis; assay type: functional, cell-based
Bacillus subtilis = assay: Antibacterial activity against clinical isolate Gram-positive Bacillus subtilis after 24 hrs by agar diffusion assay; assay type: functional
Proteus vulgaris = assay: Antibacterial activity against clinical isolates Proteus vulgaris after 24 hrs by agar diffusion assay; assay type: functional
DLA [2] = assay: Induction of apoptosis in Swiss albino mouse DLA cells assessed as nucleolus pyknosis at 50 and 100 ug/ml after 12 hrs by AO/EtBr staining based fluorescence microscopic analysis; assay type: functional, cell-based
DLA [3] = assay: Induction of apoptosis in Swiss albino mouse DLA cells assessed as cytoplasmic vacuoles at 50 and 100 ug/ml after 12 hrs by AO/EtBr staining based fluorescence microscopic analysis; assay type: functional, cell-based
DLA [4] = assay: Induction of apoptosis in Swiss albino mouse DLA cells assessed as cell shrinkage at 25,50 and 100 ug/ml after 12 hrs by AO/EtBr staining based fluorescence microscopic analysis; assay type: functional
DLA [5] = assay: Induction of apoptosis in Swiss albino mouse DLA cells assessed as membrane blebbing at 25,50 and 100 ug/ml after 12 hrs by AO/EtBr staining based fluorescence microscopic analysis; assay type: functional, cell-based
DLA [6] = assay: Induction of apoptosis in Swiss albino mouse DLA cells assessed as chromatin condensation at 25,50 and 100 ug/ml after 12 hrs by AO/EtBr staining based fluorescence microscopic analysis; assay type: functional, cell-based
DLA [7] = assay: Induction of apoptosis in Swiss albino mouse DLA cells assessed as nuclear fragmentation at 25,50 and 100 ug/ml after 12 hrs by AO/EtBr staining based fluorescence microscopic analysis; assay type: functional, cell-based
[8] = Induction of apoptosis in Swiss albino mouse DLA cells at 100 ug/ml after 12 hrs by AO/EtBr staining based fluorescence microscopic analysis; assay type: functional
Staphylococcus aureus = assay: Antibacterial activity against clinical isolates Staphylococcus aureus after 24 hrs by agar diffusion assay; assay type: functional
Escherichia coli = assay: Antibacterial activity against clinical isolates Escherichia coli after 24 hrs by agar diffusion assay; assay type: functional
Pseudomonas syringae = assay: Antibacterial activity against clinical isolate Gram-negative Pseudomonas syringae after 24 hrs by agar diffusion assay; assay type: functional

Cc1[nH][nH]c(=O)c1[C@@H](c1ccc(Cl)cc1)c1c(O)[nH]c(=O)[nH]c1=O
Activity (DLA [1]): Active | MIC (Bacillus subtilis): 25 µg/mL (≈ 71.7 µM) | MIC (Proteus vulgaris): 100 µg/mL (≈ 287 µM) | Activity (DLA [2]): Active | Activity (DLA [3]): Active | Activity (DLA [4]): Active | Activity (DLA [5]): Active | Activity (DLA [6]): Active | Activity (DLA [7]): Active | Activity [8]: 18%

Cc1[nH][nH]c(=O)c1[C@@H](c1cccc(O)c1)c1c(O)[nH]c(=O)[nH]c1=O
MIC (Bacillus subtilis): 25 µg/mL (≈ 75.7 µM) | MIC (Proteus vulgaris): 100 µg/mL (≈ 303 µM) | MIC (Staphylococcus aureus): 100 µg/mL (≈ 303 µM) | Activity (DLA [4]): Active | Activity (DLA [5]): Active | Activity (DLA [6]): Active | Activity (DLA [7]): Active

Cc1[nH][nH]c(=O)c1[C@@H](c1ccccc1[N+](=O)[O-])c1c(O)[nH]c(=O)[nH]c1=O
MIC (Escherichia coli): 100 µg/mL (≈ 278 µM) | MIC (Bacillus subtilis): 100 µg/mL (≈ 278 µM) | MIC (Pseudomonas syringae): 100 µg/mL (≈ 278 µM) | MIC (Proteus vulgaris): 100 µg/mL (≈ 278 µM) | Activity (DLA [4]): Active | Activity (DLA [5]): Active | Activity (DLA [6]): Active | Activity (DLA [7]): Active

Cc1[nH][nH]c(=O)c1[C@@H](c1cccc(Br)c1)c1c(O)[nH]c(=O)[nH]c1=O
Activity (DLA [1]): Active | MIC (Bacillus subtilis): 25 µg/mL (≈ 63.6 µM) | MIC (Pseudomonas syringae): 100 µg/mL (≈ 254 µM) | MIC (Proteus vulgaris): 100 µg/mL (≈ 254 µM) | Activity (DLA [2]): Active | Activity (DLA [3]): Active | Activity (DLA [4]): Active | Activity (DLA [5]): Active | Activity (DLA [6]): Active | Activity (DLA [7]): Active | Activity [8]: 13%

CCOC(=O)[C@H](c1c(C)[nH][nH]c1=O)c1c(O)[nH]c(=O)[nH]c1=O
Activity (DLA [1]): Active | MIC (Escherichia coli): 100 µg/mL (≈ 322 µM) | MIC (Bacillus subtilis): 100 µg/mL (≈ 322 µM) | MIC (Pseudomonas syringae): 100 µg/mL (≈ 322 µM) | MIC (Proteus vulgaris): 100 µg/mL (≈ 322 µM) | MIC (Staphylococcus aureus): 100 µg/mL (≈ 322 µM) | Activity (DLA [2]): Active | Activity (DLA [3]): Active | Activity (DLA [4]): Active | Activity (DLA [5]): Active | Activity (DLA [6]): Active | Activity (DLA [7]): Active | Activity [8]: 23%

Cc1[nH][nH]c(=O)c1[C@@H](c1ccc(F)cc1)c1c(O)[nH]c(=O)[nH]c1=O
MIC (Bacillus subtilis): 100 µg/mL (≈ 301 µM) | MIC (Pseudomonas syringae): 25 µg/mL (≈ 75.2 µM) | MIC (Proteus vulgaris): 100 µg/mL (≈ 301 µM) | Activity (DLA [4]): Active | Activity (DLA [5]): Active | Activity (DLA [6]): Active | Activity (DLA [7]): Active

Cc1[nH][nH]c(=O)c1[C@@H](c1ccccc1)c1c(O)[nH]c(=O)[nH]c1=O
MIC (Bacillus subtilis): 100 µg/mL (≈ 318 µM) | MIC (Proteus vulgaris): 100 µg/mL (≈ 318 µM) | Activity (DLA [4]): Active | Activity (DLA [5]): Active | Activity (DLA [6]): Active | Activity (DLA [7]): Active

CCC[C@H](c1c(C)[nH][nH]c1=O)c1c(O)[nH]c(=O)[nH]c1=O
Activity (DLA [1]): Active | MIC (Bacillus subtilis): 100 µg/mL (≈ 357 µM) | Activity (DLA [2]): Active | Activity (DLA [3]): Active | Activity (DLA [4]): Active | Activity (DLA [5]): Active | Activity (DLA [6]): Active | Activity (DLA [7]): Active | Activity [8]: 12%

Cc1[nH][nH]c(=O)c1[C@@H](c1ccc(Cl)cc1)c1c(O)[nH]c(=S)[nH]c1=O
MIC (Bacillus subtilis): 100 µg/mL (≈ 274 µM) | MIC (Proteus vulgaris): 100 µg/mL (≈ 274 µM) | Activity (DLA [4]): Active | Activity (DLA [5]): Active | Activity (DLA [6]): Active | Activity (DLA [7]): Active

CCC[C@H](c1c(C)[nH][nH]c1=O)c1c(O)[nH]c(=S)[nH]c1=O
MIC (Bacillus subtilis): 100 µg/mL (≈ 337 µM) | Activity (DLA [4]): Active | Activity (DLA [5]): Active | Activity (DLA [6]): Active | Activity (DLA [7]): Active

CC1(C)S[C@@H]2[C@H](NC(=O)[C@H](N)c3ccccc3)C(=O)N2[C@H]1C(=O)O [AMPICILLIN]
MIC (Escherichia coli): 5 µg/mL (≈ 14.3 µM) | MIC (Bacillus subtilis): 5 µg/mL (≈ 14.3 µM) | MIC (Pseudomonas syringae): 5 µg/mL (≈ 14.3 µM) | MIC (Proteus vulgaris): 5 µg/mL (≈ 14.3 µM) | MIC (Staphylococcus aureus): 5 µg/mL (≈ 14.3 µM)

Cc1[nH][nH]c(=O)c1[C@@H](c1cccc([N+](=O)[O-])c1)c1c(O)[nH]c(=O)[nH]c1=O
Activity (DLA [1]): Active | MIC (Bacillus subtilis): 100 µg/mL (≈ 278 µM) | MIC (Proteus vulgaris): 100 µg/mL (≈ 278 µM) | Activity (DLA [2]): Active | Activity (DLA [3]): Active | Activity (DLA [4]): Active | Activity (DLA [5]): Active | Activity (DLA [6]): Active | Activity (DLA [7]): Active | Activity [8]: 15%

CCCC[C@H](c1c(C)[nH][nH]c1=O)c1c(O)[nH]c(=O)[nH]c1=O
Activity (DLA [4]): Active | Activity (DLA [5]): Active | Activity (DLA [6]): Active | Activity (DLA [7]): Active

Cc1[nH][nH]c(=O)c1[C@@H](c1ccc([N+](=O)[O-])cc1)c1c(O)[nH]c(=O)[nH]c1=O
Activity (DLA [1]): Active | MIC (Bacillus subtilis): 100 µg/mL (≈ 278 µM) | MIC (Proteus vulgaris): 100 µg/mL (≈ 278 µM) | Activity (DLA [2]): Active | Activity (DLA [3]): Active | Activity (DLA [4]): Active | Activity (DLA [5]): Active | Activity (DLA [6]): Active | Activity (DLA [7]): Active | Activity [8]: 12%

Cc1[nH][nH]c(=O)c1[C@@H](c1ccc(F)cc1)c1c(O)[nH]c(=S)[nH]c1=O
Activity (DLA [4]): Active | Activity (DLA [5]): Active | Activity (DLA [6]): Active | Activity (DLA [7]): Active

COc1ccc([C@H](c2c(C)[nH][nH]c2=O)c2c(O)[nH]c(=O)[nH]c2=O)cc1
Activity (DLA [1]): Active | MIC (Bacillus subtilis): 100 µg/mL (≈ 290 µM) | MIC (Proteus vulgaris): 100 µg/mL (≈ 290 µM) | Activity (DLA [2]): Active | Activity (DLA [3]): Active | Activity (DLA [4]): Active | Activity (DLA [5]): Active | Activity (DLA [6]): Active | Activity (DLA [7]): Active | Activity [8]: 15%

Cc1[nH][nH]c(=O)c1[C@@H](c1cccnc1)c1c(O)[nH]c(=O)[nH]c1=O
MIC (Bacillus subtilis): 100 µg/mL (≈ 317 µM) | Activity (DLA [4]): Active | Activity (DLA [5]): Active | Activity (DLA [6]): Active | Activity (DLA [7]): Active

COc1ccccc1[C@H](c1c(C)[nH][nH]c1=O)c1c(O)[nH]c(=O)[nH]c1=O
MIC (Escherichia coli): 100 µg/mL (≈ 290 µM) | MIC (Bacillus subtilis): 100 µg/mL (≈ 290 µM) | MIC (Pseudomonas syringae): 100 µg/mL (≈ 290 µM) | MIC (Proteus vulgaris): 100 µg/mL (≈ 290 µM) | MIC (Staphylococcus aureus): 100 µg/mL (≈ 290 µM) | Activity (DLA [4]): Active | Activity (DLA [5]): Active | Activity (DLA [6]): Active | Activity (DLA [7]): Active

Cc1[nH][nH]c(=O)c1[C@@H](c1ccccc1)c1c(O)[nH]c(=S)[nH]c1=O
Activity (DLA [4]): Active | Activity (DLA [5]): Active | Activity (DLA [6]): Active | Activity (DLA [7]): Active

Cc1[nH][nH]c(=O)c1[C@@H](c1ccccc1Cl)c1c(O)[nH]c(=O)[nH]c1=O
MIC (Escherichia coli): 100 µg/mL (≈ 287 µM) | MIC (Bacillus subtilis): 100 µg/mL (≈ 287 µM) | MIC (Pseudomonas syringae): 100 µg/mL (≈ 287 µM) | MIC (Proteus vulgaris): 100 µg/mL (≈ 287 µM) | MIC (Staphylococcus aureus): 100 µg/mL (≈ 287 µM) | Activity (DLA [4]): Active | Activity (DLA [5]): Active | Activity (DLA [6]): Active | Activity (DLA [7]): Active

Cc1[nH][nH]c(=O)c1[C@@H](c1cccc([N+](=O)[O-])c1)c1c(O)[nH]c(=S)[nH]c1=O
Activity (DLA [4]): Active | Activity (DLA [5]): Active | Activity (DLA [6]): Active | Activity (DLA [7]): Active

NC[C@H]1O[C@H](O[C@H]2[C@H](O)[C@@H](O[C@H]3O[C@H](CO)[C@@H](O)[C@H](N)[C@H]3O)[C@H](N)C[C@@H]2N)[C@H](O)[C@@H](O)[C@@H]1O [KANAMYCIN]
MIC (Escherichia coli): 5 µg/mL (≈ 10.3 µM) | MIC (Bacillus subtilis): 5 µg/mL (≈ 10.3 µM) | MIC (Pseudomonas syringae): 10 µg/mL (≈ 20.6 µM) | MIC (Proteus vulgaris): 5 µg/mL (≈ 10.3 µM) | MIC (Staphylococcus aureus): 80 µg/mL (≈ 165 µM)
